`O=C1CC(Oc2cccc(C(=O)OCc3ccccc3)c2)N1` (stereo not given): the logP (as a rule, a log measure of how a compound divides between an organic and an aqueous phase) stood at 2.83.

With `O=C1CC(Oc2ccc(C(=O)C=Cc3ccccc3)cc2)N1` (stereo not given), the logP came to 2.56. The result for `O=C1CC(Oc2cccc3ccccc23)N1` (stereo not given) reads 2.66; that for `CCOC(=O)CN1C(=O)CC1Oc1ccc(C(=O)C=Cc2ccccc2)cc1` (stereo not given), 3.3; that for `CCOC(=O)CN1C(=O)CC1Sc1ccc2ccccc2c1` (stereo not given), 3.4. Turning to `O=C1CC(Sc2ccc3ccccc3c2)N1` (stereo not given), the logP was determined as 2.64. Consider `O=C1CC(Oc2ccc(-c3ccccc3)cc2)N1` (stereo not given), for which the logP turned out to be 2.61. The result for `CCOC(=O)CN1C(=O)CC1Oc1ccc2ccccc2c1` (stereo not given) reads 2.8. The result for `CC(C)(C)OC(=O)CN1C(=O)CC1Oc1ccc2ccccc2c1` (stereo not given) reads 3.6; that for `O=C1CC(Oc2ccc(C(=O)c3ccccc3)cc2)N1` (stereo not given), 2.14; that for `O=C1CC(Oc2ccc3ccccc3c2)N1` (stereo not given), 2.29. Take `O=C1CC(Oc2ccccc2C(=O)c2ccccc2)N1` (stereo not given): the logP stood at 1.83. Take `O=C1CC(Sc2ccccc2C(=O)OCc2ccccc2)N1` (stereo not given): the logP stood at 2.62.

`CCOC(=O)CN1C(=O)CC1Oc1ccc(C(=O)c2ccccc2)cc1` (stereo not given): the logP was 3. The same measure for `O=C1CC(Sc2ccc(Cl)cc2)N1` (stereo not given): 2.31.

For the origin of these results see the OPERA property sets (Mansouri et al. 2018).
